Reference: patent publication US7368267B2, “Method for the oxidation of aromatic compounds” (BASF Aktiengesellschaft, priority 2001, dated 2008)
Like-named read-outs stand apart in the source and are kept apart here.

Experiments:
E coli = conditions: at a pH of 7; cited from earlier work
E. coli [1] = assay: Toxic / inhibitory effect of substrate, products and organic phase on biomass growth of the cells; conditions: in the aqueous phase
[2] = Partition coefficients in DOP/M9 (glucose) biphasic system; type: physicochemical
E. coli [3] = tested on: E. coli
[4] = concentration in organic phase (dioctyl phthalate) relative to aqueous phase (M9 medium, glucose), triplicate

| Molecule | concentration which inhibits biomass growth (E. coli [1]) | Partition coefficient [2, 4] | other results |
| --- | --- | --- | --- |
| CC(=O)O [acetic acid] | – | – | concentration with inhibitory effect on cell growth (E coli): 5000 µg/mL |
| Cc1ccc(C=O)cc1C [3,4-Dimethylbenzaldehyde, 3,4-dimethylbenzaldehyde] | 1.812e+06 µM | 906 ± 20 | – |
| Cc1ccc(C(=O)O)cc1C [3,4-Dimethylbenzoic acid, 3,4-dimethylbenzoic acid] | – | – | Partition coefficient [2]: 0.188 ± 0.005; concentration which inhibits biomass growth (E. coli [3]): 16000 µM |
| pseudocumene (trimethylbenzene) | – | 24300 ± 1500 | concentration above which it is toxic to the cells (E. coli [1]): 15-25% |
| Cc1ccc(CO)cc1C [3,4-Dimethylbenzyl alcohol, 3,4-dimethylbenzyl alcohol] | 100000 µM | 50 ± 3 | concentration above which it has a toxic effect on the cells (E. coli [1]): > 100000 µM |
